Reference: EP0908457B1, “3-(1,2-benzisothiazol- and isoxazol-5-Y1)-2,4(1H,3H)-pyrimidinedione or thione and 3-(1,2-benzisothiazol- and isoxazol-5-y1)-4(3H)-pyrimidinone or thione herbicidal agents” (BASF AKTIENGESELLSCHAFT, priority 1997, dated 1999)

What was measured:
[1] = test system: Echinochloa oryzoides (Ard.) Fritsch.; assay: Postemergence weed control under flooded paddy conditions, ECHORC (Watergrass (Calif.)); assay type: in vivo; details: rated three to four weeks after treatment
Cyperus iria [2] = assay: Preemergence weed control under flooded paddy conditions, CYPIR (Rice Flatsedge); assay type: in vivo; details: flooded paddy; for herbicidal effect rating, CYPIR: preemergence, rated three to four weeks after treatment; for CYPIR: preemergence weeds, herbicidal effect rating 0-9, three to four weeks after treatment
[3] = test system: Monochoria vaginalis, Presl.; assay: Preemergence weed control under flooded paddy conditions, MOOVA (Monochoria); assay type: in vivo; details: flooded paddy; for herbicidal effect rating, MOOVA: preemergence, rated three to four weeks after treatment; for MOOVA: preemergence weeds, herbicidal effect rating 0-9, three to four weeks after treatment
[4] = test system: Echinochloa oryzoides (Ard.) Fritsch.; assay: Preemergence weed control under flooded paddy conditions, ECHORC (Watergrass (Calif.)); assay type: in vivo; details: flooded paddy; for herbicidal effect rating, ECHORC: preemergence, rated three to four weeks after treatment; for ECHORC: preemergence weeds, herbicidal effect rating 0-9, three to four weeks after treatment
[5] = test system: Cyperus serotinus, Rottb.; assay: Preemergence weed control under flooded paddy conditions, CYPSE (Flatsedge); assay type: in vivo; details: for herbicidal effect rating, CYPSE: preemergence, rated three to four weeks after treatment; for CYPSE: preemergence weeds, herbicidal effect rating 0-9, three to four weeks after treatment
Sagittaria pygmaea, L. [6] = assay: Postemergence weed control under flooded paddy conditions, SAGPY (Arrowhead (Pygmaea)); assay type: in vivo; details: rated three to four weeks after treatment
[7] = test system: Cyperus serotinus, Rottb.; assay: Postemergence weed control under flooded paddy conditions, CYPSE (Flatsedge); assay type: in vivo; details: rated three to four weeks after treatment
Cyperus iria [8] = assay: Postemergence weed control under flooded paddy conditions, CYPIR (Rice Flatsedge); assay type: in vivo; details: rated three to four weeks after treatment
[9] = test system: Oryza sativa, (L.) Tebonnet; assay: Rice tolerance to post-transplant applications under flooded paddy conditions (Example 187), ORYSAT (Rice, Tebonnet); details: for herbicidal effect rating ORYSAT: rated three to four weeks after treatment; for ORYSAT: herbicidal effect rating 0-9, three to four weeks after treatment; as to herbicidal effect rating ORYSAT: meaning of each grade not given here
Sagittaria pygmaea, L. [10] = assay: Preemergence weed control under flooded paddy conditions, SAGPY (Arrowhead (Pygmaea)); assay type: in vivo; details: flooded paddy; for herbicidal effect rating, SAGPY: preemergence, rated three to four weeks after treatment; for SAGPY: preemergence weeds, herbicidal effect rating 0-9, three to four weeks after treatment
[11] = test system: Monochoria vaginalis, Presl.; assay: Postemergence weed control under flooded paddy conditions, MOOVA (Monochoria); assay type: in vivo; details: rated three to four weeks after treatment
[12] = test system: Oryza sativa, (L.) Tebonnet; assay: Rice tolerance to post-transplant applications under flooded paddy conditions (Example 188), ORYSAT (Rice, Tebonnet); details: rated three to four weeks after treatment

In the case of `COc1cc2c(cc1-c1nsc3ccc(-n4c(=O)cc(C(F)(F)F)n(C)c4=O)cc13)CCC2` [Example 380, 2,4(1H,3H)-Pyrimidinedione, 3-[3-(6-methoxy-5-indanyl)-1,2-benzisothiazol-5-yl]-1-methyl-6-(trifluoromethyl)-], the “herbicidal effect rating, ECHORC” value ([1]; Rate 0.0320 kg/ha) is reported as 7.0, the “herbicidal effect rating, ECHORC” value ([1]; Rate 0.0620 kg/ha) is reported as 8.0 and the “herbicidal effect rating, ECHORC” value ([1]; Rate 0.1250 kg/ha) is reported as 9.0. The “herbicidal effect rating, ECHORC” value ([1]; Rate 0.2500 kg/ha) was 9.0, the “herbicidal effect rating, CYPIR” value (Cyperus iria [2]; Rate 0.0320 kg/ha) was 9.0 and the “herbicidal effect rating, CYPIR” value (Cyperus iria [2]; Rate 0.0620 kg/ha) was 9.0. The “herbicidal effect rating, CYPIR” value (Cyperus iria [2]; Rate 0.1250 kg/ha) was 9.0, the “herbicidal effect rating, CYPIR” value (Cyperus iria [2]; Rate 0.2500 kg/ha) was 9.0 and the “herbicidal effect rating, MOOVA” value ([3]; Rate 0.0320 kg/ha) was 9.0. The “herbicidal effect rating, MOOVA” value ([3]; Rate 0.0620 kg/ha) was 9.0, the “herbicidal effect rating, MOOVA” value ([3]; Rate 0.1250 kg/ha) was 9.0 and the “herbicidal effect rating, MOOVA” value ([3]; Rate 0.2500 kg/ha) was 9.0. For the same compound, the “herbicidal effect rating, ECHORC” value ([4]; Rate 0.0320 kg/ha) was 9.0, the “herbicidal effect rating, ECHORC” value ([4]; Rate 0.0620 kg/ha) was 9.0 and the “herbicidal effect rating, ECHORC” value ([4]; Rate 0.1250 kg/ha) was 9.0. The “herbicidal effect rating, ECHORC” value ([4]; Rate 0.2500 kg/ha) was 9.0, the “herbicidal effect rating, CYPSE” value ([5]; Rate 0.0320 kg/ha) was 3.5 and the “herbicidal effect rating, CYPSE” value ([5]; Rate 0.0620 kg/ha) was 3.5. The “herbicidal effect rating, CYPSE” value ([5]; Rate 0.1250 kg/ha) was 8.0, the “herbicidal effect rating, CYPSE” value ([5]; Rate 0.2500 kg/ha) was 8.0 and the “herbicidal effect rating, SAGPY” value (Sagittaria pygmaea, L. [6]; Rate 0.0320 kg/ha) was 0.0. The “herbicidal effect rating, SAGPY” value (Sagittaria pygmaea, L. [6]; Rate 0.0620 kg/ha) was 0.0, the “herbicidal effect rating, SAGPY” value (Sagittaria pygmaea, L. [6]; Rate 0.1250 kg/ha) was 2.0 and the “herbicidal effect rating, SAGPY” value (Sagittaria pygmaea, L. [6]; Rate 0.2500 kg/ha) was 8.0. For the same compound, the “herbicidal effect rating, CYPSE” value ([7]; Rate 0.0320 kg/ha) was 0.0, the “herbicidal effect rating, CYPSE” value ([7]; Rate 0.0620 kg/ha) was 2.0 and the “herbicidal effect rating, CYPSE” value ([7]; Rate 0.1250 kg/ha) was 2.0. The “herbicidal effect rating, CYPSE” value ([7]; Rate 0.2500 kg/ha) was 8.0, the “herbicidal effect rating, CYPIR” value (Cyperus iria [8]; Rate 0.0320 kg/ha) was 9.0 and the “herbicidal effect rating, CYPIR” value (Cyperus iria [8]; Rate 0.0620 kg/ha) was 9.0. The “herbicidal effect rating, CYPIR” value (Cyperus iria [8]; Rate 0.1250 kg/ha) was 9.0, the “herbicidal effect rating, CYPIR” value (Cyperus iria [8]; Rate 0.2500 kg/ha) was 9.0 and the “herbicidal effect rating ORYSAT” value ([9]; Rate 0.0320 kg/ha) was 2.5. The “herbicidal effect rating ORYSAT” value ([9]; Rate 0.0620 kg/ha) was 4.0, the “herbicidal effect rating ORYSAT” value ([9]; Rate 0.1250 kg/ha) was 5.0 and the “herbicidal effect rating ORYSAT” value ([9]; Rate 0.2500 kg/ha) was 6.5. For the same compound, the “herbicidal effect rating, SAGPY” value (Sagittaria pygmaea, L. [10]; Rate 0.0320 kg/ha) was 0.0, the “herbicidal effect rating, SAGPY” value (Sagittaria pygmaea, L. [10]; Rate 0.0620 kg/ha) was 0.0 and the “herbicidal effect rating, SAGPY” value (Sagittaria pygmaea, L. [10]; Rate 0.1250 kg/ha) was 4.0. The “herbicidal effect rating, SAGPY” value (Sagittaria pygmaea, L. [10]; Rate 0.2500 kg/ha) was 9.0, the “herbicidal effect rating, MOOVA” value ([11]; Rate 0.0320 kg/ha) was 9.0 and the “herbicidal effect rating, MOOVA” value ([11]; Rate 0.0620 kg/ha) was 9.0. The “herbicidal effect rating, MOOVA” value ([11]; Rate 0.1250 kg/ha) was 9.0, the “herbicidal effect rating, MOOVA” value ([11]; Rate 0.2500 kg/ha) was 9.0 and the “herbicidal effect rating, ORYSAT (rice tolerance)” value (from here on “herbicidal effect rating, ORYSAT”) ([12]; Rate 0.0320 kg/ha) was 3.0. For the same compound, the “herbicidal effect rating, ORYSAT” value ([12]; Rate 0.0620 kg/ha) was 7.0, the “herbicidal effect rating, ORYSAT” value ([12]; Rate 0.1250 kg/ha) was 7.0 and the “herbicidal effect rating, ORYSAT” value ([12]; Rate 0.2500 kg/ha) was 7.0.
`CCC(C#N)(CC)c1nsc2ccc(-n3c(=O)cc(C(F)(F)F)n(C)c3=O)cc12` [Example 445, 1,2-Benzisothiazole-3-acetonitrile, 5-[3,6-dihydro-3-methyl-2,6-dioxo-4-(trifluoromethyl)-1(2H)-pyrimidinyl]-alpha,alpha-diethyl-] was tested, and the “herbicidal effect rating, ECHORC” value ([1]; Rate 0.0320 kg/ha) was 4.0, the “herbicidal effect rating, ECHORC” value ([1]; Rate 0.0620 kg/ha) was 7.0 and the “herbicidal effect rating, ECHORC” value ([1]; Rate 0.1250 kg/ha) was 9.0. For the same compound, the “herbicidal effect rating, ECHORC” value ([1]; Rate 0.2500 kg/ha) was 9.0, the CYPIR (Cyperus iria [2]; 0.0320 kg/ha) was 6.5 and the CYPIR (Cyperus iria [2]; 0.0620 kg/ha) was 8.0. It also gave a CYPIR (Cyperus iria [2]; 0.1250 kg/ha) of 9.0, a CYPIR (Cyperus iria [2]; 0.2500 kg/ha) of 9.0 and an MOOVA ([3]; 0.0320 kg/ha) of 9.0. For the same compound, the MOOVA ([3]; 0.0620 kg/ha) was 9.0, the MOOVA ([3]; 0.1250 kg/ha) was 9.0 and the MOOVA ([3]; 0.2500 kg/ha) was 9.0. It also gave an ECHORC ([4]; 0.0320 kg/ha) of 8.5, an ECHORC ([4]; 0.0620 kg/ha) of 8.5 and an ECHORC ([4]; 0.1250 kg/ha) of 9.0. The ECHORC ([4]; 0.2500 kg/ha) was 9.0, the CYPSE ([5]; 0.0320 kg/ha) was 7.5 and the CYPSE ([5]; 0.0620 kg/ha) was 8.5. For the same compound, the CYPSE ([5]; 0.1250 kg/ha) was 8.0, the CYPSE ([5]; 0.2500 kg/ha) was 8.5 and the “herbicidal effect rating, SAGPY” value (Sagittaria pygmaea, L. [6]; Rate 0.0320 kg/ha) was 0.0. The “herbicidal effect rating, SAGPY” value (Sagittaria pygmaea, L. [6]; Rate 0.0620 kg/ha) was 0.0, the “herbicidal effect rating, SAGPY” value (Sagittaria pygmaea, L. [6]; Rate 0.1250 kg/ha) was 4.0 and the “herbicidal effect rating, SAGPY” value (Sagittaria pygmaea, L. [6]; Rate 0.2500 kg/ha) was 9.0. The “herbicidal effect rating, CYPSE” value ([7]; Rate 0.0320 kg/ha) was 0.0, the “herbicidal effect rating, CYPSE” value ([7]; Rate 0.0620 kg/ha) was 2.0 and the “herbicidal effect rating, CYPSE” value ([7]; Rate 0.1250 kg/ha) was 4.0. For the same compound, the “herbicidal effect rating, CYPSE” value ([7]; Rate 0.2500 kg/ha) was 4.0, the “herbicidal effect rating, CYPIR” value (Cyperus iria [8]; Rate 0.0320 kg/ha) was 4.0 and the “herbicidal effect rating, CYPIR” value (Cyperus iria [8]; Rate 0.0620 kg/ha) was 7.0. The “herbicidal effect rating, CYPIR” value (Cyperus iria [8]; Rate 0.1250 kg/ha) was 9.0, the “herbicidal effect rating, CYPIR” value (Cyperus iria [8]; Rate 0.2500 kg/ha) was 9.0 and the ORYSAT ([9]; 0.0320 kg/ha) was 5.0. The ORYSAT ([9]; 0.0620 kg/ha) was 6.5, the ORYSAT ([9]; 0.1250 kg/ha) was 7.0 and the ORYSAT ([9]; 0.2500 kg/ha) was 8.0. It also gave an SAGPY (Sagittaria pygmaea, L. [10]; 0.0320 kg/ha) of 4.5, an SAGPY (Sagittaria pygmaea, L. [10]; 0.0620 kg/ha) of 8.0 and an SAGPY (Sagittaria pygmaea, L. [10]; 0.1250 kg/ha) of 8.5. For the same compound, the SAGPY (Sagittaria pygmaea, L. [10]; 0.2500 kg/ha) was 9.0, the “herbicidal effect rating, MOOVA” value ([11]; Rate 0.0320 kg/ha) was 0.0 and the “herbicidal effect rating, MOOVA” value ([11]; Rate 0.0620 kg/ha) was 0.0. The “herbicidal effect rating, MOOVA” value ([11]; Rate 0.1250 kg/ha) was 2.0, the “herbicidal effect rating, MOOVA” value ([11]; Rate 0.2500 kg/ha) was 9.0 and the “herbicidal effect rating, ORYSAT” value ([12]; Rate 0.0320 kg/ha) was 3.0. The “herbicidal effect rating, ORYSAT” value ([12]; Rate 0.0620 kg/ha) was 6.0, the “herbicidal effect rating, ORYSAT” value ([12]; Rate 0.1250 kg/ha) was 7.0 and the “herbicidal effect rating, ORYSAT” value ([12]; Rate 0.2500 kg/ha) was 7.0.
